One data set relates to B16 melanoma cells. As to the kind of experiment: B16 melanoma in vivo study: bone marrow toxicity. The arrangement: species or system mice. Particulars: 10 mg/kg QD or 20 mg/kg QOC. As for the experimental part: Figures 41A, 41B and 41C illustrates the results from an in vivo study in mice where B16 melanoma cells were injected intravenously through a tail vein on day 0 and compound no. 50 was administered inter parenterally at 10 mg/kg QD or 20 mg/kg QOC, starting days 1-14. The mice were sacrificed on day 15 and the lungs were dissected and fixed in formalin. In addition bone marrow toxicity was evaluated by measuring neutrophil and platelet counts in the mice on day 15.

For data set [1], the system named is human pulmonary smooth muscle cells. As to the kind of experiment: Growth factor-induced proliferation of pulmonary smooth muscle cells. It is filed as cell-based. Particulars: 5 µM. As for the experimental part:
58 on either aFGF or bFGF-induced proliferation in human pulmonary smooth muscle cells. Cells were grown in reduced serum (0.5% fetal calf serum) for 24 hours prior to stimulating with various concentrations of […]. Cells, stimulated with either aFGF or bFGF, were analyzed in the presence and absence of compound no. 58 (5 µM). Assay results are reported in figures 25A and 25B (aFGF and bFGF, respectively). As shown in the results, compound no.
Figures 65A-65F illustrate inhibition of proliferation in either human aortic or pulmonary smooth muscle cells (SMC) by inventive compound no. 58. Procedurally, cells were cultured in 0.5% serum containing medium 24 hours prior to stimulation with various concentrations of either PDGF (figs. 65A and 65B), acidic FGF (figs. 65C and 65D) or basic FGF (figs. 65E and 65F). Cells were stimulated for 24 hours prior to labeling with ^3H-TdR for 4 hours and harvested and counted by scintillation. Compound no. 58 was added 1 hour prior to stimulation at a concentration of 5 µM. Even at points of maximum stimulation of the growth factors, compound no. […] In addition cell number was assessed and those treated with compound no.

Consider 2 molecules from EP0719267B1, “SECOND MESSENGER CELL SIGNALING INHIBITORS” (CELL THERAPEUTICS, INC., priority 1993, dated 1994).

With `CCCCCCCCCCCCNCC(O)CCCCCCCCCn1c(=O)c2c(ncn2C)n(C)c1=O` (centres unmarked) [compound no. 50, 1-(11-Dodecylamino-10-hydroxyundecyl)-3,7-dmethylxanthine], the “neutrophil and platelet counts” value in the data set with B16 melanoma cells (day 15) is on record as “increased counts over non-treated control animals”. Further, in the data set with B16 melanoma cells (days 1-14, day 15), the bone marrow toxicity entry is listed as “not toxic to the bone marrow”.

`COc1cc(CNCC(O)CCCCCCCCCn2c(=O)c3c(ncn3C)n(C)c2=O)cc(OC)c1OC` (centres unmarked) [compound no. 58, 1-[11-(3,4,5-Trimethoxybenzylamino)-10-hydroxyundecyl]-3,7-dimethylxanthine]: in data set [1], the “inhibition of aFGF and bFGF-induced proliferation” value was “a potent inhibitor of both aFGF and bFGF-induced proliferation”; the toxic effect entry is on record as “No toxic effect”. The “inhibition of proliferation at maximum stimulation by PDGF, acidic FGF or basic FGF” value in data set [1] (added 1 hour prior) is “completely inhibited cellular proliferation in both aortic and pulmonary SMC”.
